Experiments:
[1] = Critical micelle concentration (CMC) of bile salts; type: physicochemical; settings: approximate values; critical micellular concentration
From the text: In some embodiments, a bile acid or salt thereof of the disclosure is characterized by a critical micelle concentration (CMC). In some embodiments, the bile acid or salt thereof aggregates and/or forms micelles at a concentration above the CMC. […] In some embodiments, the method comprises potentiometry, spectrophotometry, nuclear magnetic resonance, viscosimetry, turbidimetry, microcalorimetry, refractometry, conductimetry, cholesterol solubilization, bilirubin monoglucuronide solubilization, dye solubilization, fluorescence, capillary electrophoresis, reverse phase HPLC, freezing point depression, surface tension, and/or light scattering. In some embodiments, the CMC value is an average of at least 3-50 replicates measured by a single technique (e.g., 3-50 replicates measured by potentiometry, 3-50 replicates measured by spectrophotometry, or 3-50 replicates measured by light scattering). In some embodiments, the CMC value is an average of replicates measured by more than one technique, wherein at least 3, 4, 5, 6, 7, 8, 9, or 10 replicates are measured per technique (e.g., an average of (i) at least 3, 4, 5, 6, 7, 8, 9, or 10 replicates measured by potentiometry, (ii) at least 3, 4, 5, 6, 7, 8, 9, or 10 replicates measured by spectrophotometry, (iii) at least 3, 4, 5, 6, 7, 8, 9, or 10 replicates measured by light scattering, (iv) replicates from any pair-wise combination of (i)-(iii), or (v) replicates from a combination of (i)-(iii)).
The bile acids tested in the formulations are identified in Table 2. The bile acids selected for testing vary in the number of hydroxyl groups, stereochemistry of hydroxyl groups, and conjugation at terminal acid.

[2] = system: porcine ex vivo intestinal tissue; assay: GI-ORIS ex vivo intestinal permeation assay
Procedure: (§1) A custom device confines larger tissue explants into individual compartments with donor and receiver chambers that face the apical and basolateral faces of the intestinal tissue, respectively. Porcine tissue was dissected as previously described from freshly harvested gastrointestinal tracts and jejunal segments were stored in calcium-free Krebs buffer at 4° C. for 16 hours prior to mounting between the receiver and donor compartments of a GI-ORIS device. Receiver compartments were filled with 150 μL of either 5% Bovine Serum Albumin (for Vancomycin) or 0.1% Ovalbumin (for Calcitonin, Insulin, Semaglutide) solutions prior to tissue mounting. […]
(§2) Vancomycin in receiver fluid samples was detected using LC-TOF. […] Quantification was performed relative to standard curves prepared in receiver fluid with no exposure to peptide.
(§3) Semaglutide in receiver fluid samples was detected using LC-QQQ. […] Quantification was performed relative to standard curves prepared in receiver fluid with no exposure to peptide.
(§4) Calcitonin and Insulin in receiver fluid samples (following a 1000× dilution in PBS) were detected using established protocols of commercial sandwich ELISA kits (Abcam, Waltham, MA, and Thermo Fisher Scientific, Waltham, MA). TMB chromogen absorbance was converted to peptide concentration relative to a standard curve prepared using provided standards in ELISA buffer. […]

[3] = system: porcine ex vivo intestinal tissue
Procedure: as §1, §2, §3, §4

Structure (SMILES)	CMC [1] [mM]	CMC (mg/mL) [1]	lowest concentration for which a maximal effect on vancomycin permeability was observed [2] [mg/mL]	enhancement in intestinal permeability of the peptides [3]
C[C@H](CCC(=O)[O-])[C@H]1CC[C@H]2[C@@H]3[C@H](O)C[C@@H]4C[C@H](O)CC[C@]4(C)[C@H]3CC[C@]12C.[Na+] [CDCA, sodium chenodeoxycholate]	4	1.6 mg/ mL mg/mL	–	–
C[C@H](CCC(=O)[O-])[C@H]1CC[C@H]2[C@@H]3[C@H](O)C[C@@H]4C[C@H](O)CC[C@]4(C)[C@H]3C[C@H](O)[C@]12C.[Na+] [CHA, sodium cholate]	11	4.5 mg/ mL mg/mL	–	–
C[C@H](CCC(=O)[O-])[C@H]1CC[C@H]2[C@@H]3CC[C@@H]4C[C@H](O)CC[C@]4(C)[C@H]3C[C@H](O)[C@]12C.[Na+] [DCA, sodium deoxycholate]	5	2.0 mg/ ml mg/mL	–	–
C[C@H](CCC(=O)NCC(=O)[O-])[C@H]1CC[C@H]2[C@@H]3[C@H](O)C[C@@H]4C[C@H](O)CC[C@]4(C)[C@H]3C[C@H](O)[C@]12C.[Na+] [GCA, sodium glycocholate]	11	5.4 mg/ mL mg/mL	128	–
C[C@H](CCC(=O)NCC(=O)[O-])[C@H]1CC[C@H]2[C@@H]3[C@H](O)C[C@@H]4C[C@H](O)CC[C@]4(C)[C@H]3CC[C@]12C.[Na+] [GCDCA, sodium glycochenodeoxycholate]	2	0.9 mg/ mL mg/mL	–	–
C[C@H](CCC(=O)NCC(=O)[O-])[C@H]1CC[C@H]2[C@@H]3CC[C@@H]4C[C@H](O)CC[C@]4(C)[C@H]3C[C@H](O)[C@]12C.[Na+] [GDCA, sodium glycodeoxycholate]	2	0.9 mg/ mL mg/mL	–	–
C[C@H](CCC(=O)NCCS(=O)(=O)[O-])[C@H]1CC[C@H]2[C@@H]3[C@H](O)C[C@@H]4C[C@H](O)CC[C@]4(C)[C@H]3C[C@H](O)[C@]12C.[Na+] [STC, sodium taurocholate]	6	3.2 mg/ ml mg/mL	–	greatest enhancement in intestinal permeability
C[C@H](CCC(=O)NCCS(=O)(=O)[O-])[C@H]1CC[C@H]2[C@@H]3[C@H](O)C[C@@H]4C[C@H](O)CC[C@]4(C)[C@H]3CC[C@]12C.[Na+] [TCDCA, sodium taurochenodeoxycholate]	4	2.1 mg/ mL mg/mL	–	–
C[C@H](CCC(=O)NCCS(=O)(=O)[O-])[C@H]1CC[C@H]2[C@@H]3CC[C@@H]4C[C@H](O)CC[C@]4(C)[C@H]3C[C@H](O)[C@]12C.[Na+] [TDCA, sodium taurodeoxycholate]	3	1.6 mg/ mL mg/mL	–	–
